Experimental data taken from patent US20260144796A1, “Compounds and Methods for Improving Health” (Acurx Pharmaceuticals, Inc., priority 2022, published 2026).
≈ marks a conversion by molar mass, not a printed value. Like-named read-outs stand apart in the source and are kept apart here.

Experiments:
[1] = tested on: representative Actinobacteria (Bifidobacteriaceae and Coriobacteriaceae); assay: MIC, isolated gut microbiota species: Actinobacteria; format: cell-based; conditions: inactive
Procedure: (§1) Strains plated onto blood agar (Hardy Diagnostics) with a 24-hour incubation at 37° C. in an anaerobic environment (Coy vinyl anaerobic chamber). After incubation, 3-5 well-isolated colonies were suspended into 5 mL of BHI broth (Criterion Media). The cultures were incubated in an anaerobic chamber for 24 hours to achieve a 0.5 McFarland Standard. […] Plates were allowed to dry in a sterile location. After drying, the plates were covered with foil to prevent any photo-damage to the hemin and placed in the anaerobic chamber for 1 hour to reduce the media. The broth culture was then spotted onto the plates and covered with foil. Plates were allowed to dry completely before inverting them for incubation for 48 hours. Plates were analyzed and MIC recorded.

[2] = tested on: Coprococcus sp; assay: MIC determination, stool Firmicute isolates; format: cell-based; conditions: N=1
[3] = tested on: certain Firmicutes (Lachnospiraceae and Lactobacilluseae); assay: MIC, isolated gut microbiota species: certain Firmicutes; format: cell-based; conditions: inactive
Procedure: as §1

[4] = tested on: gut microbiome; assay: Germ-free humanized mouse study, 16S rRNA gut microbiome analysis; format: in vivo; conditions: humanized germ-free mice; for proportional change of Bacteroidetes (in words): phylum level
Description: Germ-free (GF) mice (six per group) were randomly assigned to IBZ, VAN, FDX, MTZ, or control groups.
An oral gavage of healthy human-derived fecal slurry was given to GF mice. The humanized mice were housed in a sterile biological safety cabinet (BSC) for one week to allow the donor gut microbiome to establish. Humanized mice were then moved to sterile, micro-isolator cages and pellet chow diet was exchanged for a powder chow diet. The humanized mice were then allowed one week to acclimate to the powder chow diet. In addition, a stool sample was obtained prior to the change in diet (baseline 1). At day 14, once the mice acclimated to the powder chow diet, a second baseline stool sample was obtained (baseline 2) and antibiotic treatment was started. The appropriate antibiotics were added to the powder chow diet for 10 days. At day 16, two days after beginning antibiotic treatment, another stool sample was collected (ABX-1). During the 10-day antibiotic treatment, powder chow dishes were refilled each day with fresh chow containing the randomly assigned antibiotic. Stool samples were again collected at day 24 (ABX-2).
To assess antibiotic microbiome effect, 16S rRNA metagenomics was used on stool samples that were collected at day 0 (baseline 1 and baseline 2) and after 2 and […] of treatment with antibiotics. Bulk DNA was extracted from stool samples using the DNeasy® PowerSoil® Kit. The V4 region of the bacterial 16S rRNA gene was sequenced using the Illumina MiSeq and CLC Genomics Workbench. Raw sequencing reads were processed and curated using the mothur (v.1.48.0) software package and the mothur MiSeq SOP was followed as outlined in Schloss, P. D., et al., Introducing mothur: open-source, platform-independent, community supported software for describing and comparing microbial communities. Appl Environ Microbiol, 2009. 75(23): p. 7537-41 (see also, Kozich, J. J., et al., Development of a dual-index sequencing strategy and curation pipeline for analyzing amplicon sequence data on the MiSeq Illumina sequencing platform. Appl Environ Microbiol, 2013. 79(17): p. 5112-20.). All data visualization and statistical analysis were performed using R studio (R Core Team (2023). R: A Language and Environment for Statistical Computing, Vienna, Austria.).

[5] = tested on: C. difficile biofilms (strains R20291, CD 630); assay: C. difficile in vitro biofilm studies (MIC, MBIC, CFU/mL, Crystal Violet biomass); format: cell-based
Procedure: A basic flow chart outlining the experimental procedure used in these studies may be seen in FIG. 14. Briefly, C. difficile laboratory strain R20291 was grown in Brain heart infusion-supplemented (BHIS) medium. […] Biofilm formation was established via anaerobic incubation of the cultures at 37° C. for 24 hrs. Early biofilm formation was established at 4 hrs, whereas late biofilm formation was established at 24 hrs, 48 hrs, and 72 hrs. Following biofilm formation, the BHIS medium was removed and replaced with fresh media comprising no antibiotic (control), ibezapolstat (IBZ), Fidaxomicin (FDX), or metronidazole (MTZ). The cultures were then anaerobically incubated for 24 hrs or subjected to time course tests. Biofilm biomass was measured using Crystal Violet staining. […] Data was measured and recorded using Cytation 3 calibrated to read at A570. Data was analyzed by comparing percent growth of antibiotic treated cultures with controls.

[6] = tested on: Clostridium subterminale; assay: MIC determination, stool Firmicute isolates; format: cell-based; conditions: N=1
[7] = tested on: Enterococcus faecalis; assay: MIC determination, stool Firmicute isolates; format: cell-based
[8] = tested on: C. difficile CD 630 motility; assay: Phenotypic motility assay; conditions: sub-inhibitory concentrations in semi-solid BHI agar
[9] = tested on: Flavonifractor plautii; assay: MIC determination, stool Firmicute isolates; format: cell-based; conditions: N=1
[10] = tested on: Melissococcus plutonius; assay: MIC determination, stool Firmicute isolates; format: cell-based; conditions: N=1
[11] = antibiotic in powder chow 10 days
[12] = antibiotic in powder chow 10 days, compared to Baseline 2 (D14)

O=c1[nH]c(NCc2ccc(Cl)c(Cl)c2)nc2ncn(CCN3CCOCC3)c12 [Ibezapolstat, 2-((3,4-dichlorobenzyl)amino)-7-(2-morpholinoethyl)-1,7-dihydro-6H-purin-6-one]
MIC [1]: > 64 µg/mL
MIC50 [2]: 25 µg/mL (≈ 59.1 µM)
MIC [3]: > 64 µg/mL
proportional change of Bacteroidetes (in words) [4]: proportional increases
proportional change of Bacteroidetes (in words) ([4]; listed as IBZ): significant proportional increase
Average Change in Metric ± SD, Bray-Curtis Dissim. to Baseline 1 [4, 11]: 0.81 ± 0.02
Average Change in Metric ± SD, Bray-Curtis Dissim. to Baseline 2 [4, 11]: 0.68 ± 0.03
Avg. Change in Relative Abundance ± SD, Actinobacteria [4, 12]: 0.02% ± 0.08%
Avg. Change in Relative Abundance ± SD, Bacteroidetes [4, 12]: 34% ± 2.96%
Avg. Change in Relative Abundance ± SD, Proteobacteria [4, 12]: 9.7% ± 3.12%
C. diff growth (CFU/mL) and biomass at sub-MIC compared to control ([5]; 0.4× MIC): reduced
growth in early biofilms at supra-MIC ([5]; 40× MIC, after 48 hours of treatment): eradicated growth
MBIC ([5]; C. diff. strain R20291, Minimum Biofilm Inhibitory Concentration): 4 µg/mL
MIC ([5]; Clostridioides difficile, C. diff. strain R20291, read-out: MIC): 4 µg/mL (≈ 9.45 µM)
MIC50 [6]: 1 µg/mL (≈ 2.36 µM)
MIC50 [7]: 12.5 µg/mL (≈ 29.5 µM)
MIC ([7]; N=5, read-out: MIC Max): 50 µg/mL (≈ 118 µM)
MIC ([7]; read-out: MIC Min): 12.5 µg/mL (≈ 29.5 µM)
motility of CD 630 [8]: attenuated motility
motility of CD 630 ([8]; listed as IBZ): less motile
MIC50 [9]: 25 µg/mL (≈ 59.1 µM)
MIC50 [10]: 6.25 µg/mL (≈ 14.8 µM)
